Results as given in patent US10450549B2, “Aryloxyphenoxypropionate tolerance in turfrgass species and use of AAD1 as a selectable marker” (Dow AgroSciences, LLC, priority 2004, dated 2019).

How the values were obtained:
[1] = test system: Agrostis palustris var. Pencross; experiment: Bentgrass plate test bioassay for herbicide degradation; assay type: in vivo; details: AAD1 (v1) extract
Experimental: Because of the selective nature of the herbicides being tested (i.e., monocot plants controlled by AOPP herbicides and dicot plants controlled by auxinic herbicides), wildtype Agrostis palustris var. Pencross and Arabidopsis thaliana var. Columbia were used as monocot and dicot test species, respectively. Each species is amenable to germination and growth in small Petri dishes.
Twenty to thirty sterilized seeds for each test species used were added onto a sterile, solidified agar Plate Test Medium (PTM) [2.5 mM KNO3, 2.5 mM KH2PO4, […], 10 mM NaEDTA (pH 8.0), 2 mM MgSO4, 2 mM Ca(NO3) 2, 70 μM H3BO3, 14 μM MnCl2, 0.5 μM CuSO4, 1 μM ZnSO4, 0.2 μM NaMoO4.2H2O, 10 μM NaCl, 10 nM CoCl2.H2O, 0.8% (w/v) sucrose, 0.4% agarose (w/v)] for bioassay in 60×15-mm Petri dishes (Falcon 1007). PTM was additionally modified by adding up to six rates of test herbicide standards or herbicide-enzyme test solution dilutions such that the four-fold concentration increments covered a rate range of three orders of magnitude with the GR50 rate (50% growth reduction) approximately in the center of the range.
For herbicide-enzyme test solutions, the maximal concentration was determined based on the nominal concentration before any subsequent enzymatic degradation would occur. Seeds were evenly spread by adding 3 ml of melted PTM of the same composition, swirling, and allowing to solidify. Plates were sealed and maintained under sterile conditions in a low light growth chamber (24 h day^−1, 100 μE/m^2s^1, 23° C.) for 7 days. Root length or root+shoot length were measured for five randomly chosen Arabidopsis and bentgrass plants, respectively, average mean length (percent of untreated control) vs. nominal herbicide concentration and GR50 determined.

[2] = test system: AAD1-transformed T0 ‘Shamrock’ Kentucky bluegrass events; experiment: Haloxyfop-R-methyl postemergence on AAD1 (pDAB3878) T0 Shamrock Kentucky bluegrass, visual % injury; assay type: in vivo; details: for injury of event KGB51: 560 g ae/ha
Experimental: ‘Shamrock’ Kentucky bluegrass T0 pDAB3878 events were maintained vegetatively through division of the crowns and replanting the clonal pieces into fresh growth medium. Clonally propagated plants were maintained by periodic “mowing” of vegetative tissues.
A growth medium was prepared by mixing Promix® and sand in a 2 to 1 ratio. The medium was contained in plastic pots with a surface area of 84.6 square centimeters (cm^2). When required to maintain plant health, a fungicide, insecticide, and/or other chemical or physical treatment was applied to stock plants. The plants were maintained in a greenhouse with an approximate 14 hour photoperiod which was maintained at 24-27° C. during the day and 22-25° C. during the night. Nutrients (Peters Excel® 15-5-15 5-Ca 2-Mg and iron chelate) were applied in the irrigation solution as needed and water was added on a regular basis. Supplemental lighting was provided with overhead metal halide 1000-Watt lamps when PAR dropped below 500.
The selected T0 plants were sprayed with haloxyfop-R-methyl (Gallant Super®, DOW AGROSCIENCES, INC.) at rates ranging from 140 to 560 g ae/ha. […] This rate would also control susceptible monocot weed species. Measured amounts were placed individually in 25 mL glass vials and dissolved in a 12 mL volume of 1.0% (v/v) Agri-Dex® Crop Oil Concentrate (COC).
Spray solutions were applied to the plant material with an overhead Mandel™ track sprayer equipped with a 8002E nozzles calibrated to deliver 187 L/ha over an application area of 0.503 square meters (m^2) at a spray height of 18 inches (46 cm) above average plant canopy height. Control plants were sprayed in the same manner with the COC blank.
The treated plants and control plants were placed in a greenhouse and watered by sub-irrigation to prevent wash-off of the test compounds. At various times after application, the condition of the test plants as compared with that of the untreated plants was determined visually and scored on a scale of 0 to 100 percent, where 0 corresponds to no injury or growth inhibition, and 100 corresponds to complete kill. Regenerated, non-transformed (NT) ‘Shamrock’ Kentucky bluegrass plants and/or seed-derived clonally propagated plants served as haloxyfop sensitive controls.

Q: With `CC(Oc1ccc(Oc2ncc(C(F)(F)F)cc2Cl)cc1)C(=O)O` (centres unmarked) [haloxyfop] as the compound, how does the “herbicidal activity after AAD1 (v1) treatment, bentgrass plate bioassay” value [1] read?
A: loss of herbicidal activity

Q: What about the “mean injury, pDAB3878 Shamrock Kentucky bluegrass events” value ([2]; 140 and 560 g ae/ha, 11, 14 and 20 DAA) of the same compound?
A: less than 15%

Q: What about the “injury of event KGB51” value ([2]; 11 DAA) of the same compound?
A: about 20%

Q: And the “injury of event KGB51” value ([2]; 14 DAA)?
A: ~30%

Q: And the “injury of event KGB51” value ([2]; 20 DAA)?
A: ~30%
